Laboratory results reported in patent US20190364899A1, “MICROBIOCIDAL OXADIAZOLE DERIVATIVES” (SYNGENTA PARTICIPATIONS AG, priority 2015, published 2019).
Read-outs that look alike come from different tables or passages of the source.

Columns and labels:
[1] = system: Puccinia recondita f, Sp. Tritici; experiment: Fungicidal activity against Puccinia recondita f. sp. tritici / wheat / leaf disc preventative (brown rust); type: in vivo; conditions: foliar, 200 ppm in the applied formulation, wheat leaf segments cv. Kanzler, inoculated 1 day after application, compared to untreated, read-out: disease control
Method: (§1) General examples of leaf disk tests in well plates: Leaf disks or leaf segments of various plant species are cut from plants grown in a greenhouse. The cut leaf disks or segments are placed in multiwell plates (24-well format) onto water agar. The leaf disks are sprayed with a test solution before (preventative) or after (curative) inoculation. Compounds to be tested are prepared as DMSO solutions (max. 10 mg/ml) which are diluted to the appropriate concentration with 0.025% Tween20 just before spraying. The inoculated leaf disks or segments are incubated under defined conditions (temperature, relative humidity, light, etc.) according to the respective test system. A single evaluation of disease level is carried out 3 to 14 days after inoculation, depending on the pathosystem. Percent disease control relative to the untreated check leaf disks or segments is then calculated. General examples of liquid culture tests in well plates: Mycelia fragments or conidia suspensions of a fungus prepared either freshly from liquid cultures of the fungus or from cryogenic storage, are directly mixed into nutrient broth. DMSO solutions of the test compound (max. 10 mg/ml) are diluted with 0.025% Tween20 by a factor of 50 and 10 μl of this solution is pipetted into a microtiter plate (96-well format). The nutrient broth containing the fungal spores/mycelia fragments is then added to give an end concentration of the tested compound. The test plates are incubated in the dark at 24° C. and 96% relative humidity. The inhibition of fungal growth is determined photometrically after 2 to 7 days, depending on the pathosystem, and percent antifungal activity relative to the untreated check is calculated.
Example 1: Fungicidal Activity Against Puccinia recondita f, Sp. Tritici/Wheat/Leaf Disc Preventative (Brown Rust)
Wheat leaf segments cv. Kanzler were placed on agar in multiwell plates (24-well format) and sprayed with the formulated test compound diluted in water. The leaf disks were inoculated with a spore suspension of the fungus 1 day after application. The inoculated leaf segments were incubated at 19° C. and 75% relative humidity (rh) under a light regime of 12 hours light/12 hours darkness in a climate cabinet and the activity of a compound was assessed as percent disease control compared to untreated when an appropriate level of disease damage appears in untreated check leaf segments (7 to 9 days after application).
(§2) The following compounds at 200 ppm in the applied formulation give at least 80% disease control in this test when compared to untreated control leaf disks under the same conditions, which show extensive disease development.

[2] = system: Glomerella Lagenarium (Colletotrichum Lagenarium); experiment: Fungicidal activity against Glomerella lagenarium (Colletotrichum lagenarium) liquid culture / cucumber / preventative (anthracnose); type: cell-based; conditions: Colletotrichum orbiculare, read-out: disease control
Method: as §1
Example 4: Fungicidal Activity Against Glomerella Lagenarium (Colletotrichum Lagenarium) Liquid Culture/Cucumber/Preventative (Anthracnose)
Conidia of the fungus from cryogenic storage are directly mixed into nutrient broth (PDB—potato dextrose broth). After placing a (DMSO) solution of test compound into a microtiter plate (96-well format), the nutrient broth containing the fungal spores is added. The test plates are incubated at 24° C. and the inhibition of growth is measured photometrically 3 to 4 days after application.
The following compounds at 20 ppm in the applied formulation give at least 80% disease control in this test when compared to untreated control under the same conditions, which show extensive disease development.

[3] = system: Puccinia Recondite f. Sp. Tritici; experiment: Fungicidal activity against Puccinia recondita f. sp. tritici / wheat / leaf disc curative (brown rust); type: in vivo; conditions: foliar, 24 h, 200 ppm in the applied formulation, wheat leaf segments cv. Kanzler, applied 1 day after inoculation, compared to untreated, read-out: disease control
Method: as §1
Example 2: Fungicidal Activity Against Puccinia Recondite f. Sp. Tritici Wheat/Leaf Disc Curative (Brown Rust)
Wheat leaf segments cv. Kanzler are placed on agar in multiwell plates (24-well format). The leaf segments are then inoculated with a spore suspension of the fungus. Plates were stored in darkness at 19° C. and 75% relative humidity. The formulated test compound diluted in water was applied 1 day after inoculation. The leaf segments were incubated at 19° C. and 75% relative humidity under a light regime of 12 hours light/12 hours darkness in a climate cabinet and the activity of a compound was assessed as percent disease control compared to untreated when an appropriate level of disease damage appears in untreated check leaf segments (6 to 8 days after application).
as §2

Phakopsora pachyrhizi = experiment: Fungicidal activity against Phakopsora pachyrhizi / soybean / leaf disc preventative (Asian soybean rust); type: in vivo; conditions: foliar, 200 ppm in the applied formulation, soybean leaf disks, inoculated one day after application, compared to untreated, read-out: disease control
Method: as §1
Example 3: Fungicidal Activity Against Phakopsora pachyrhizi/Soybean/Leaf Disc Preventative (Asian Soybean Rust)
Soybean leaf disks are placed on water agar in multiwell plates (24-well format) and sprayed with the formulated test compound diluted in water. One day after application leaf discs are inoculated by spraying a spore suspension on the lower leaf surface. After an incubation period in a climate cabinet of 24-36 hours in darkness at 20° C. and 75% rh leaf disc are kept at 20° C. with 12 h light/day and 75% rh. The activity of a compound is assessed as percent disease control compared to untreated when an appropriate level of disease damage appears in untreated check leaf disks (12 to 14 days after application).
as §2

[4] = 20 ppm in the applied formulation, liquid culture in PDB, growth inhibition measured photometrically 3 to 4 days after application, compared to untreated

Row | Structure (SMILES) | pest or weed control at 200 ppm [1] [%] | inhibition of growth at 20 ppm [2, 4] [%] | inhibition of growth at 20 ppm [2] [%] | pest or weed control at 200 ppm [3] [%] | pest or weed control at 200 ppm (Phakopsora pachyrhizi) [%]
1 | O=C(NCc1ccc(-c2noc(C(F)(F)F)n2)cc1)OCc1ccccc1 [Compound 1.4, benzyl N-[[4-[5-(trifluoromethyl)-1,2,4-oxadiazol-3-yl]phenyl]methyl] carbamate] | ≥ 80 | ≥ 80 |  |  | 
2 | O=C(NCc1ccc(-c2noc(C(F)(F)F)n2)cn1)Oc1ccccc1 [Compound 1.5, phenyl N-[[5-[5-(trifluoromethyl)-1,2,4-oxadiazol-3-yl)-2-pyridyl]methyl] carbamate] |  |  | ≥ 80 |  | 
3 | O=C(NCc1ccc(-c2noc(C(F)(F)F)n2)cn1)OCc1ccccc1 [Compound 1.6, benzyl N-[[5-[5-(trifluoromethyl)-l,2,4-oxadiazol-3-yl]-2-pyridyl]methyl] carbamate] | ≥ 80 | ≥ 80 |  | ≥ 80 | 
4 | O=C(NCc1ccc(-c2noc(C(F)(F)F)n2)cn1)Nc1ccccc1 [Compound 2.5, 1-phenyl-3-[[5-[5-(trifluoromethyl)-1,2,4-oxadiazol-3-yl]-2-pyridyl]methyl]urea] | ≥ 80 | ≥ 80 |  |  | 
5 | O=C(NCc1ccc(-c2noc(C(F)(F)F)n2)cc1)NC1CCCCC1 [Compound 2.6, 1-cyclohexyl-3-[[4-[5-(trifluoromethyl)-1,2,4-oxadiazol-3-yl]phenyl]methyl]urea] |  |  |  |  | ≥ 80
6 | O=C(NCc1ccc(-c2noc(C(F)(F)F)n2)cc1)Nc1ccccc1 [Compound 2.7, 1-phenyl-3-[[4-[5-(trifluoromethyl)-1,2,4-oxadiazol-3-yl]phenyl]methyl]urea] | ≥ 80 | ≥ 80 |  |  | ≥ 80
7 | O=C(NCc1ccccc1)NCc1ccc(-c2noc(C(F)(F)F)n2)cc1 [Compound 2.8, 1-benzyl-3-[[4-[5-(trifluoromethyl)-1,2,4-oxadiazol-3-yl]phenyl]methyl]urea] | ≥ 80 | ≥ 80 |  |  | 
8 | O=C(NCc1ccc(-c2noc(C(F)(F)F)n2)cc1)NC1CCC1 [Compound 2.9, 1-cyclobutyl-3-[[4-[5-(trifluoromethyl)-1,2,4-oxadiazol-3-yl]phenyl]methyl]urea] | ≥ 80 | ≥ 80 |  |  | 
9 | O=C(NCc1ccc(-c2noc(C(F)(F)F)n2)cc1)NC1CCCC1 [Compound 2.10, 1-cyclopentyl-3-[[4-[5-(trifluoromethyl)-1,2,4-oxadiazol-3-yl]phenyl]methyl]urea] | ≥ 80 | ≥ 80 |  |  | 
10 | O=C(NCc1ccc(-c2noc(C(F)(F)F)n2)cc1)NCc1ccco1 [Compound 2.11, 1-(2-furylmethyl)-3-[[4-[5-(trifluoromethyl)-l,2,4-oxadiazol-3-yl]phenyl]methyl]urea] |  | ≥ 80 |  |  | 
11 | O=C(NCc1ccccc1)NCc1ccc(-c2noc(C(F)(F)F)n2)cn1 [Compound 2.12, 1-benzyl-3-[[5-[5-(trifluoromethyl)-1,2,4-oxadiazol-3-yl]-2-pyridyl]methyl]urea] | ≥ 80 | ≥ 80 |  |  | 
12 | O=C(NCc1ccc(-c2noc(C(F)(F)F)n2)cn1)Nc1ccc(F)cc1 [Compound 2.13, 1-(4-fluorophenyl)-3-[[5-[5-(trifluoromethyl)-1,2,4-oxadiazol-3-yl]-2-pyridyl]methyl]urea] | ≥ 80 |  |  |  | 
13 | O=C(NCc1ccc(-c2noc(C(F)(F)F)n2)cn1)Nc1ccc(Cl)cc1 [Compound 2.15, 1-(4-chlorophenyl)-3-[[5-[5-(trifluoromethyl)-1,2,4-oxadiazol-3-yl]-2-pyridyl]methyl]urea] | ≥ 80 | ≥ 80 |  |  | 
14 | O=C(NCc1ccc(-c2noc(C(F)(F)F)n2)cn1)NCc1ccco1 [Compound 2.16] | ≥ 80 | ≥ 80 |  |  | 
15 | O=C(NCc1ccc(-c2noc(C(F)(F)F)n2)cn1)Nc1cccc(F)c1 [Compound 2.17, 1-(3-fluorophenyl)-3-[[5-[5-(trifluoromethyl)-1,2,4-oxadiazol-3-yl]-2-pyridyl]methyl]urea] | ≥ 80 | ≥ 80 |  | ≥ 80 | ≥ 80
16 | O=C(NCc1ccc(-c2noc(C(F)(F)F)n2)cn1)Nc1ccccc1F [Compound 2.18, 1-(2-fluorophenyl)-3-[[5-[5-(trifluoromethyl)-1,2,4-oxadiazol-3-yl]-2-pyridyl]methyl]urea] | ≥ 80 | ≥ 80 |  |  | 
17 | O=C(NCc1ccc(-c2noc(C(F)(F)F)n2)cn1)Nc1ccccc1Cl [Compound 2.19, 1-(2-chlorophenyl)-3-[[5-[5-(trifluoromethyl)-1,2,4-oxadiazol-3-yl]-2-pyridyl]methyl]urea] | ≥ 80 | ≥ 80 |  |  | ≥ 80
18 | CN(C(=O)NCc1ccc(-c2noc(C(F)(F)F)n2)cc1)C1CC1 [Compound 2.22, 1-cyclopropyl-1-methyl-3-[[4-[5-(trifluoromethyl)-1,2,4-oxadiazol-3-yl]phenyl]methyl]urea] | ≥ 80 | ≥ 80 |  | ≥ 80 | ≥ 80
19 | O=C(NCc1ccc(-c2noc(C(F)(F)F)n2)cc1)NC1COC1 [Compound 2.23, 1-(oxetan-3-yl)-3-[[4-[5-(trifluoromethyl)-1,2,4-oxadiazol-3-yl]phenyl]methyl]urea] | ≥ 80 |  |  |  | ≥ 80
20 | N#CC1(NC(=O)NCc2ccc(-c3noc(C(F)(F)F)n3)cc2)CC1 [Compound 2.24, 1-(1-cyanocyclopropyl)-3-[[4-[5-(trifluoromethyl)-1,2,4-oxadiazol-3-yl]phenyl]methyl]urea] | ≥ 80 |  |  | ≥ 80 | ≥ 80
21 | CC1(NC(=O)NCc2ccc(-c3noc(C(F)(F)F)n3)cc2)CC1 [Compound 2.25, 1-(1-methylcyclopropyl)-3-[[4-[5-(trifluoromethyl)-1,2,4-oxadiazol-3-yl]phenyl]methyl]urea] |  |  |  |  | ≥ 80
22 | CN(C(=O)NCc1ccc(-c2noc(C(F)(F)F)n2)cc1)C1CCC1 [Compound 2.26, 1-cyclobutyl-1-methyl-3-[[4-[5-(trifluoromethyl)-1,2,4-oxadiazol-3-yl]phenyl]methyl]urea] | ≥ 80 | ≥ 80 |  | ≥ 80 | ≥ 80
23 | CCN(CC1CC1)C(=O)NCc1ccc(-c2noc(C(F)(F)F)n2)cc1 [Compound 2.29, 1-(cyclopropylmethyl)-l-ethyl-3-[[4-[5-(trifluoromethyl)-1,2,4-oxadiazol-3-yl]phenyl]methyl]urea] | ≥ 80 | ≥ 80 |  |  | ≥ 80
